From patent publication US20260297106A1, “SPIROCYCLIC SUBSTITUTED OXOISOINDOLINYL PIPERIDINE-2,6-DIONE COMPOUND” (Bristol-Myers Squibb Company, priority 2023, published 2026)
Like-named read-outs stand apart in the source and are kept apart here.

Columns and labels:
Type in all cases: cell-based
IKZF1 Ikaros = IKZF1 Ikaros (Homo sapiens, UniProt Q13422+Q96SW2); assay: Human CD8+ T Cell Reprogramming Assay (IKZF1 Ikaros); parameters: Cryopreserved healthy donor human peripheral blood mononuclear cells; endogenous in cells; host or cells: primary human PBMC, CD8+ T cells read by flow cytometry
Chain of IKZF1 Ikaros (Q13422 whole entry): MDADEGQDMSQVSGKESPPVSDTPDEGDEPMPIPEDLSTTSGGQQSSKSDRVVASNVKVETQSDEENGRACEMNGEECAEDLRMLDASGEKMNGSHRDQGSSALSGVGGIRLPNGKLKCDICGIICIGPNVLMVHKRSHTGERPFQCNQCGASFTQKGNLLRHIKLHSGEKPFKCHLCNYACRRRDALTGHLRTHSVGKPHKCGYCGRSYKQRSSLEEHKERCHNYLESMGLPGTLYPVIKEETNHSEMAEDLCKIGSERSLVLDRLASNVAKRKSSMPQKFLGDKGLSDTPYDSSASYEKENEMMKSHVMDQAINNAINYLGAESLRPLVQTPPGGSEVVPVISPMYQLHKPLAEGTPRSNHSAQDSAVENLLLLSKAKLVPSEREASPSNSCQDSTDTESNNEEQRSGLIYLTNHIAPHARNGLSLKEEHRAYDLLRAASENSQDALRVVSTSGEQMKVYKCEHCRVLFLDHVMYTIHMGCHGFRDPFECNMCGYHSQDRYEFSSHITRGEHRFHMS
Chain of IKZF1 Ikaros (Q96SW2 whole entry): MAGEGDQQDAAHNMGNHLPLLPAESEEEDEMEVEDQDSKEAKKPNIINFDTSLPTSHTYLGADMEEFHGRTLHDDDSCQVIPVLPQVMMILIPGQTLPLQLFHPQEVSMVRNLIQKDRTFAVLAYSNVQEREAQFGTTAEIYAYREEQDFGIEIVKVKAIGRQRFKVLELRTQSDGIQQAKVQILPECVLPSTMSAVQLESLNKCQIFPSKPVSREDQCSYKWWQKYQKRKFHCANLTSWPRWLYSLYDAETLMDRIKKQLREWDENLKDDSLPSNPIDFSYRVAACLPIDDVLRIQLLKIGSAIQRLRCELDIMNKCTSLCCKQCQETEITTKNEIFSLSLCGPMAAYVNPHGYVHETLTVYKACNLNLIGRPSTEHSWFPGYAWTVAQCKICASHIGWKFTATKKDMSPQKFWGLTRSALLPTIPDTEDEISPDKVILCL
Chain of IKZF1 Ikaros (Q16531 whole entry partner): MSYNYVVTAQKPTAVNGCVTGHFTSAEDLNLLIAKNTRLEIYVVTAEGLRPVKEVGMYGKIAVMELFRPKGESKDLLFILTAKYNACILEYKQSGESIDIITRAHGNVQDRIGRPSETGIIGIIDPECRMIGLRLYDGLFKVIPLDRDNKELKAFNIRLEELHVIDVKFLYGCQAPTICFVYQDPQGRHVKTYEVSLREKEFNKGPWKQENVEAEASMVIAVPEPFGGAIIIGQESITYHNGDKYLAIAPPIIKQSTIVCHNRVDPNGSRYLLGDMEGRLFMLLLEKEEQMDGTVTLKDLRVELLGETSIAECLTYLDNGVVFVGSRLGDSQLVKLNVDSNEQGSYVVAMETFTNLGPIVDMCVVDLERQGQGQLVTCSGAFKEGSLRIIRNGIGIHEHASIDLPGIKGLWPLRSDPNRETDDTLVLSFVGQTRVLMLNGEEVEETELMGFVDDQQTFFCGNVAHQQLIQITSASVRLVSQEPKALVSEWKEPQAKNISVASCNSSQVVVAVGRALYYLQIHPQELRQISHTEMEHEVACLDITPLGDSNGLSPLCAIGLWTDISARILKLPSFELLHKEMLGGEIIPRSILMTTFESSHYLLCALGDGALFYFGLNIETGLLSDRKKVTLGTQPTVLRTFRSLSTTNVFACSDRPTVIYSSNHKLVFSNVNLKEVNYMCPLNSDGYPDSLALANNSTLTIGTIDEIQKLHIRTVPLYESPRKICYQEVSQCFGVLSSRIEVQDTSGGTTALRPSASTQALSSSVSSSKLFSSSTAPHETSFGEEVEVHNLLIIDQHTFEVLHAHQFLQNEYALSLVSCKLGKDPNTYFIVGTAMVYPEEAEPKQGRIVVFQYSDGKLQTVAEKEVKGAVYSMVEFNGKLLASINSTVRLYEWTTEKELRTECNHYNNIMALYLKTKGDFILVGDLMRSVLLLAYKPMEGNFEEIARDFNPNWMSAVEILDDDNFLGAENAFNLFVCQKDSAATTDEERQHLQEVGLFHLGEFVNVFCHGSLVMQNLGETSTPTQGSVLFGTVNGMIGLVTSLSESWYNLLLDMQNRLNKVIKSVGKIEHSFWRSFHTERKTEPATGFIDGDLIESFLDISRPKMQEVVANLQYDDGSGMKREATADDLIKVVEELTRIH
Procedure: (§1) Cryopreserved healthy donor human peripheral blood mononuclear cells (PBMC) from healthy donors were thawed and seeded at 500,000 cells/well of 96-well round bottom plates in RPMI 1640 media (Gibco) supplemented with 10% FBS, Pen/Strep (Gibco), MEM-NEAA (Gibco), and sodium pyruvate (Gibco). Cells were treated with titrated doses of compound for 24 hours at 37° C., 5% CO2 before analyzing by flow cytometry.
(§2) For flow cytometry staining, cells were washed twice with flow cytometry staining buffer (Thermo Fisher) and incubated in Human Tru-stain Fc block (Biolegend) for 10 minutes before adding eFluor780 viability dye (Thermo Fisher) and surface marker antibody cocktail containing LD-eFluor780, CD3-BUV-395, CD4-BUV805, CD8-FITC, and CD25-BV605 for 30 minutes at 4° C. Cells were then fixed and permeabilized by incubation with permeabilization buffer (eBioscience FoxP3 buffer set 00-5523-00) for 30 minutes at 4° C. as per the kit manufacturer's instructions. Cells were washed twice with the Perm/Wash buffer supplied in the kit as per the manufacturer's instructions and incubated overnight at 4° C. with an intracellular antibody cocktail comprised of antibodies specific for the transcription factors (i.e., Foxp3-BV421, HELIOS-PE-Cy7, EOS-PE, IKAROS-PECF594, AIOLOS-AF647). Cells were washed twice with Perm/Wash buffer and resuspended in flow cytometry staining buffer (Thermo Fisher) prior to acquisition. Sample acquisition and analysis was performed using a BD LSRFortessa (BD Biosciences) flow cytometer. Single-stain controls for each fluorochrome were prepared using UltraComp eBead Compensation Beads (Thermo Fisher). Data were analyzed using FlowJo version 10 and GraphPad Prism Software.
(§3) Table D-1 lists the maximum observed degradation of the IKZF1 protein and IKZF3 protein as measured in the Human CD8^+ T Cell Reprogramming assay. The results in Table D-1 were rounded to two digits. In the Human CD8^+ T Cell Reprogramming assay, a value of 100% indicated no detectable protein remaining or complete degradation of the protein; and a value of 0% indicated no detectable degradation of the protein by the test compound.

IKZF2 Helios = IKZF2 Helios (Homo sapiens, UniProt Q96SW2+Q9UKS7); assay: Human Regulatory T Cell Reprogramming Assay (IKZF2 Helios); parameters: T cells were isolated from fresh healthy leukopaks; endogenous in cells; host or cells: FACS-sorted primary human CD4+ CD127low CD25+ Treg cells from healthy leukopaks; conditions: CD4+ CD127low CD25+ Treg cells, 12-13 days; for DC50: concentration reducing protein level by 50% vs DMSO; for Dmax: Regulatory T cell, human, read-out: Maximum Observed Degradation IKZF2 Helios
Chain of IKZF2 Helios (Q9UKS7 whole entry): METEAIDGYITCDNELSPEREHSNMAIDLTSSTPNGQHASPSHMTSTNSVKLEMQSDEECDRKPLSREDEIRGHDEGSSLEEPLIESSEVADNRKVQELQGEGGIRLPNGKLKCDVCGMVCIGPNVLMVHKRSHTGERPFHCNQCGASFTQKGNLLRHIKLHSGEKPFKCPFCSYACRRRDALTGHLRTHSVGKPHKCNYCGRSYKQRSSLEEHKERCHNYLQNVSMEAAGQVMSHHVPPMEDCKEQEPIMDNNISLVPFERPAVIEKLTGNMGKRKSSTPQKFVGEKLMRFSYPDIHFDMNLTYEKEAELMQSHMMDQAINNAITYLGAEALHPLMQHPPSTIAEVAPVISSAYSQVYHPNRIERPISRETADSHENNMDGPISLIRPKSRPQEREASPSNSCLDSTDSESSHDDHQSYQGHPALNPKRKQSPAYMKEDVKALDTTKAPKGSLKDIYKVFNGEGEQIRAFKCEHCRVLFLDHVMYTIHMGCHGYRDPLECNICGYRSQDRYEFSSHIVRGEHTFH
Chain of IKZF2 Helios (Q96SW2 whole entry): as the sequence (Q96SW2 whole entry) above
Chain of IKZF2 Helios (Q16531 whole entry partner): as the sequence (Q16531 whole entry partner) above
Procedure: Human CD4^+ T cells were isolated from fresh healthy leukopaks (Stemcell Technologies) using the RosetteSep Human CD4^+ T cell enrichment cocktail (Stemcell Technologies) and Ficoll density gradient centrifugation. Leukopaks were diluted with an equal volume of phosphate-buffered saline (PBS [Gibco]) supplemented with 2% fetal bovine serum (FBS, VWR Lifescience) and incubated with RosetteSep Human CD4^+ T cell enrichment cocktail for 20 minutes before layering on Ficoll-Paque Plus solution (GE Health Care). The cell-rich interface layer was harvested and washed twice with PBS supplemented with 2% FBS. Regulatory T cells were then isolated manually using the EasySep Human CD4 CD1271WCD25^+ Regulatory T cell isolation kit (Stemcell Technologies) according to the manufacturer's instructions. Cells were rested overnight in Roswell Park Memorial Institute (RPMI) 1640 media (Gibco) supplemented with 10% FBS, Pen/Strep (Gibco), MEM-NEAA (Gibco), and sodium pyruvate (Gibco) in a humidified incubator (37° C., 5% CO2). Cells were then stained for CD4 (clone: RPA-T4, Biolegend), CD25 (clone: 2A3, BD Biosciences), and CD127 (clone: hIL-7R-M21, BD Biosciences). CD4^+ CD127^lowCD25^+ cells were sorted on a BD FACS Aria Fusion sorter to a purity of 95% or greater. Sorted cells were immediately used or cryopreserved for downstream assays.
Fresh or cryopreserved FACS-sorted CD4^+ CD127^lowCD25^+ Treg cells were cultured at 25,000-50,000 cells/well of 96-well round bottom plates in RPMI 1640 media (Gibco) supplemented with 10% FBS, Pen/Strep (Gibco), MEM-NEAA (Gibco), and sodium pyruvate (Gibco). Cells were stimulated with Treg Xpander beads (Thermo Fisher) at cells-to-beads ratio of 1:4 in the presence of 500 U/mL recombinant human IL-2 (Proleukin). Compounds were added at titrated doses and cells were incubated at 37° C., 5% CO2 for 12-13 days. Recombinant human IL-2 and compound were replenished every 2-3 days during the entire culture duration. On day 12 or 13, cells were restimulated with phorbol 12-myristate 13-acetate (PMA) and ionomycin in the presence of the protein transport inhibitors brefeldin A and monensin (eBioscience Cell Stimulation Cocktail plus protein transport inhibitors, 500×, Catalog number 00-4975-93) before proceeding with flow cytometry staining and analysis.
as §2, with “cocktail” for “cocktail containing LD-eFluor780, CD3-BUV-395, CD4-BUV805, CD8-FITC, and CD25-BV605”, “FoxP3 transcription factor staining” for “permeabilization”, “(Thermo Fisher)” for “(eBioscience FoxP3 buffer set 00-5523-00)”, “shown in Table C.” for “(i.e., Foxp3-BV421, HELIOS-PE-Cy7, EOS-PE, IKAROS-PECF594, AIOLOS-AF647).”, “Single stain” for “Single-stain”
as §3, with “C-1” for “D-1”, “IKZF2” for “IKZF1”, “IKZF4” for “IKZF3”, “Regulatory” for “CD8^+”

IKZF3 Aiolos = IKZF3 Aiolos (Homo sapiens, UniProt Q96SW2+Q9UKT9); assay: Human CD8+ T Cell Reprogramming Assay (IKZF3 Aiolos); parameters: Cryopreserved healthy donor human peripheral blood mononuclear cells; endogenous in cells; host or cells: primary human PBMC, CD8+ T cells read by flow cytometry
Chain of IKZF3 Aiolos (Q9UKT9 whole entry): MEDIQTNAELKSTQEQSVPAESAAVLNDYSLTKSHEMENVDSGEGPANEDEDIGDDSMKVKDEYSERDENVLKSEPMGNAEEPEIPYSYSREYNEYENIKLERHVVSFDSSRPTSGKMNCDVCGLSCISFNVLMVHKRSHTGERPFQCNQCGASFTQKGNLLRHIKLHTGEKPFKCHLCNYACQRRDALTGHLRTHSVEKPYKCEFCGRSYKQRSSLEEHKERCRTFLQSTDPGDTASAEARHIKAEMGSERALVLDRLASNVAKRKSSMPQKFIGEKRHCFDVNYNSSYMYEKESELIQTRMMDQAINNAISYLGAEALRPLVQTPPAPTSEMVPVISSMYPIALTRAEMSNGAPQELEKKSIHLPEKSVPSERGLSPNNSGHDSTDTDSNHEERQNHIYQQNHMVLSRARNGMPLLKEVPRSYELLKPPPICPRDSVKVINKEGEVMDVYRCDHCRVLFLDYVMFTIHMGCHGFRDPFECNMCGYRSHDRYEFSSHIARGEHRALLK
Chain of IKZF3 Aiolos (Q96SW2 whole entry): as the sequence (Q96SW2 whole entry) above
Chain of IKZF3 Aiolos (Q16531 whole entry partner): as the sequence (Q16531 whole entry partner) above
Procedure: as §1, §2, §3

[1] = human PBMC, CD8+ T cells, 24 hours, read-out: Maximum Observed Degradation IKZF1 Ikaros
[2] = human, 24 h, Table D-1, read-out: decreased the level of IKZF1 (Ikaros)
[3] = human PBMC, CD8+ T cells, 24 hours, read-out: Maximum Observed Degradation IKZF3 Aiolos
[4] = human PBMC, CD8+ T cells, 24 hours, concentration reducing protein level by 50% vs DMSO

Row | Dmax (IKZF1 Ikaros; [1]) [%] | Dmax (IKZF1 Ikaros; [2]) [%] | DC50 (IKZF2 Helios) [nM] | Dmax (IKZF2 Helios) [%] | Dmax (IKZF3 Aiolos; [3]) [%] | DC50 (IKZF1 Ikaros; [4]) [nM] | Dmax (IKZF1 Ikaros; human, 24 h, Table E comparison, from Table D-1, read-out: IKZF1 Ikaros max % deg. observed) [%] | DC50 (IKZF3 Aiolos; [4]) [nM] | Dmax (IKZF3 Aiolos; human, 24 h, Table D-1, read-out: decreased the level of IKZF3 (Aiolos)) [%] | Dmax (IKZF3 Aiolos; human, 24 h, Table E comparison, from Table D-1, read-out: IKZF3 Aiolos max % deg. observed) [%] | Structure (SMILES)
1 | 20 | ≤ 20 | 2.2 | 92 | 39 | – | – | – | – | – | O=C1CCC(N2Cc3c(ccc(-c4cc(CN5CC(c6ccccc6)C5)ccn4)c3F)C2=O)C(=O)N1 (centres unmarked) [Comparative Compound A, 3-(4-fluoro-1-oxo-5-(4-((3-phenylazetidin-1-yl)methyl)pyridin-2-yl)isoindolin-2-yl) piperidine-2,6-dione]
2 | 11 | ≤ 20 | 25 | 90 | 2 | – | – | – | – | – | Nc1nc(-c2ccc3c(c2)CN(C2CCC(=O)NC2=O)C3=O)ccc1CN1CC2(CCC2)C1 (centres unmarked) [Comparative Compound B, 3-(5-(5-((2-azaspiro[3.3]heptan-2-yl)methyl)-6-aminopyridin-2-yl)-1-oxoisoindolin-2-yl) piperidine-2,6-dione]
3 | 64 to 65 | 64 to 65 | 38 | 85 | 62 to 66 | 29 to 43 | 64 to 65 | 23 to 35 | 62 to 66 | 62 to 66 | Nc1nc(-c2ccc3c(c2F)CN(C2CCC(=O)NC2=O)C3=O)ccc1CN1CC2(CCCOC2)C1 (centres unmarked) [Example 1, 3-(5-(5-((6-oxa-2-azaspiro[3.5]nonan-2-yl)methyl)-6-aminopyridin-2-yl)-4-fluoro-1-oxoisoindolin-2-yl) piperidine-2,6-dione]
